Measurements reported in US11072616B2, “Cyclic peptides targeting alpha-4-beta-7 integrin” (Zealand Pharma A/S, priority 2015, dated 2021).

Molecular target: T1, integrin α4β7 (Homo sapiens, UniProt P13612+P26010)
T1 sequence (P13612 34-977 limits assumed): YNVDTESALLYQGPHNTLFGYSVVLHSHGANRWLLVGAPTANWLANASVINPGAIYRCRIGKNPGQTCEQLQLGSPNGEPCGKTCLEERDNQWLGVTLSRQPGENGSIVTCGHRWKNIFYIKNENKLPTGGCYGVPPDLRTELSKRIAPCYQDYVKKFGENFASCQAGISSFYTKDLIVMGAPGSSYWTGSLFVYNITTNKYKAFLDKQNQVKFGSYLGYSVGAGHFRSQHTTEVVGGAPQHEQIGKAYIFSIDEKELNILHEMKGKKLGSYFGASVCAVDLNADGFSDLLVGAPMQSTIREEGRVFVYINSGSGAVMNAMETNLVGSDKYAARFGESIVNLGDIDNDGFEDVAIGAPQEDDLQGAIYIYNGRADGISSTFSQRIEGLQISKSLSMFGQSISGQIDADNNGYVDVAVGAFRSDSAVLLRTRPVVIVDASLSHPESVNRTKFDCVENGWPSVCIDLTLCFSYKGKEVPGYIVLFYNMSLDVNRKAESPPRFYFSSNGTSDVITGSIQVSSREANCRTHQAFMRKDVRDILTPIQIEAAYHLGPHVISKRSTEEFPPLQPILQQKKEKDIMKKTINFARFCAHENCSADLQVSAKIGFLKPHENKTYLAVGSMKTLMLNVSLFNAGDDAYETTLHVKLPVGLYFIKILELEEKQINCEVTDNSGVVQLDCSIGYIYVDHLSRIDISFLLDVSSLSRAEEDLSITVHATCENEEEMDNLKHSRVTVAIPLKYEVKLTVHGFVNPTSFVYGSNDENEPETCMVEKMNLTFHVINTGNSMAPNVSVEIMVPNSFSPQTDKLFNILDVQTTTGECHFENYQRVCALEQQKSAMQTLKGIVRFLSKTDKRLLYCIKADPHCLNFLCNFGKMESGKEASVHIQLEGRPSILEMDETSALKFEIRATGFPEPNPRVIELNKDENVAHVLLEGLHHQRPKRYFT
T1 sequence (P26010 20-723 limits assumed): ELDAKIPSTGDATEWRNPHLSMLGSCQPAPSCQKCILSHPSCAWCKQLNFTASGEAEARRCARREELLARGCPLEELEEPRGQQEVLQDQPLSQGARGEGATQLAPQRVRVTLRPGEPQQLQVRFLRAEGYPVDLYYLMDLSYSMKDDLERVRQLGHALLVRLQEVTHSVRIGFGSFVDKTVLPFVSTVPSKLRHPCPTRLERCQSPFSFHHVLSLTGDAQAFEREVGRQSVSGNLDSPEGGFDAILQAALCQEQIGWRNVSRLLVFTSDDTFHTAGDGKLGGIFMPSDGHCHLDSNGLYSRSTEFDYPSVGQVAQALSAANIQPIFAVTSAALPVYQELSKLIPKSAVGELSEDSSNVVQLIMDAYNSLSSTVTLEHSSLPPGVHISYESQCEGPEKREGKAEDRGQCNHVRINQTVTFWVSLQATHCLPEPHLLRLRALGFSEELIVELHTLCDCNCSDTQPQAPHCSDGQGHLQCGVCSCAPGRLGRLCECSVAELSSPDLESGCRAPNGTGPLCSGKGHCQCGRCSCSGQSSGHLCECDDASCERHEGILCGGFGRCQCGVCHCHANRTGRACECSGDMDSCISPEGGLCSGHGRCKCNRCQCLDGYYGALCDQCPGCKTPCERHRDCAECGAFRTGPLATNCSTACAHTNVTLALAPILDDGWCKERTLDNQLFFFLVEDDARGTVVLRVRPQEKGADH
Assay: Integrin α4β7—MAdCAM-1 competition assay (ELISA)
Type: binding
Details: ratio a4b1 ELISA IC50 / a4b7 ELISA IC50
Procedure: Integrin α4β7—MAdCAM-1 Competition Assay
The plate was incubated at 4° C. overnight. […] The plate was then incubated for 1 hour at room temperature. The plate was washed three times with wash buffer (50 mM Tris, 100 mM NaCl, 1 mM MnCl2, 0.05% Tween). To each well, 50 μl of compound diluted in assay buffer was added by transfer from a compound serial dilution plate. […] The plate was incubated at room temperature with shaking for 2 hours to reach binding equilibrium. Then the plate was washed three times in wash buffer and 100 μl anti-human IgG Fc specific-horseradish peroxidase (HRP) (Abcam, Ab97225) diluted at 1:2000 in assay buffer was added to each well. The plate was incubated at room temperature for 1 hour under agitation. The plates were then washed three times and 100 μl of 1,3′,5,5′-tetramethylbenxidie (TMB) was then added to each well.

Point of comparison: `CC(C)C[C@@H]1NC(=O)[C@@H]2CCN2C(=O)C[C@H](CCCCN)NC(=O)[C@@H]2CCCN2[C@H](C(=O)NC(C)(C)C)[C@H](C)NC(=O)[C@H]([C@@H](C)O)NC(=O)[C@H](CC(=O)O)NC1=O` [Compound 319], “Selectivity ELISA” value 4.8. Against it:
- Cc1cccc(C)c1-c1ccccc1C[C@@H]1NC(=O)[C@@H]2CCCN2[C@H](C(=O)NC(C)(C)C)[C@H](C)NC(=O)[C@H]([C@@H](C)O)NC(=O)[C@H](CC(=O)O)NC(=O)[C@H](CC(C)C)NC(=O)C[C@H](CCCCN)NC1=O [Compound 272] — higher, 58.1
- CC(C)C[C@@H]1NC(=O)[C@H]2CCCCN2C(=O)[C@@H]2CCCN2[C@H](C(=O)NC(C)(C)C)[C@H](C)NC(=O)[C@H]([C@@H](C)O)NC(=O)[C@H](CC(=O)O)NC1=O [Compound 51] — lower, 3.3
- CC(C)C[C@@H]1NC(=O)[C@H]2CCCN2C(=O)[C@H](Cc2cc(F)c(F)c(F)c2)NC(=O)[C@@H]2CCCN2[C@H](C(=O)NC(C)(C)C)[C@H](C)NC(=O)[C@H]([C@@H](C)O)NC(=O)[C@H](CC(=O)O)NC1=O [Compound 128] — higher, 11.4
- CC(C)C[C@@H]1NC(=O)[C@@H]2C[C@@H](O)CN2C(=O)[C@H](Cc2ccc(O)cc2)NC(=O)[C@@H]2CCCN2[C@H](C(=O)NC(C)(C)C)[C@H](C)NC(=O)[C@H]([C@@H](C)O)NC(=O)[C@H](CC(=O)O)NC1=O [Compound 139] — lower, 0.7
- CC(C)C[C@@H]1NC(=O)[C@H](Cc2cccnc2)NC(=O)[C@@H]2C[C@@H](O)CN2[C@H](C(=O)NC(C)(C)C)[C@H](C)NC(=O)[C@H]([C@@H](C)O)NC(=O)[C@H](CC(=O)O)NC1=O [Compound 44] — lower, 2.3
- CC(C)C[C@@H]1NC(=O)[C@@H](CCCCN)NC(=O)[C@H](Cc2ccc(-c3ccccc3)cc2)NC(=O)[C@@H]2CCCN2[C@H](C(=O)NC(C)(C)C)[C@H](C)NC(=O)[C@H]([C@@H](C)O)NC(=O)[C@H](CC(=O)O)NC1=O [Compound 110] — higher, 21.3
- CC(C)C[C@@H]1NC(=O)c2cc(cc(-c3ccncc3)c2)CNC(=O)[C@@H]2CCCN2[C@H](C(=O)NC(C)(C)C)[C@H](C)NC(=O)[C@H]([C@@H](C)O)NC(=O)[C@H](CC(=O)O)NC1=O [Compound 362] — higher, 5.6
- CC(C)C[C@@H]1NC(=O)c2ccc(-c3cccc(CN)c3)c(c2)CNC(=O)[C@@H]2CCCN2[C@H](C(=O)NC(C)(C)C)[C@H](C)NC(=O)[C@H]([C@@H](C)O)NC(=O)[C@H](CC(=O)O)NC1=O [Compound 382] — lower, 2.0
- CC(C)C[C@@H]1NC(=O)[C@H]2CCCCN2C(=O)[C@H](Cc2ccc(-c3ccccc3)cc2)NC(=O)[C@@H]2CCCN2[C@H](C(=O)NC(C)(C)C)[C@H](C)NC(=O)[C@H]([C@@H](C)O)NC(=O)[C@H](CC(=O)O)NC1=O [Compound 138] — higher, 5.0
- CC(C)C[C@@H]1NC(=O)[C@H]2C[C@@H](O)CN2C(=O)[C@H](Cc2ccc(O)cc2)NC(=O)[C@@H]2CCCN2[C@H](C(=O)NC(C)(C)C)[C@H](C)NC(=O)[C@H]([C@@H](C)O)NC(=O)[C@H](CC(=O)O)NC1=O [Compound 141] — lower, 2.0
- CC(C)C[C@@H]1NC(=O)[C@H]2CCCCN2C(=O)[C@H](Cc2cscn2)NC(=O)[C@@H]2CCCN2[C@H](C(=O)NC(C)(C)C)[C@H](C)NC(=O)[C@H]([C@@H](C)O)NC(=O)[C@H](CC(=O)O)NC1=O [Compound 131] — lower, 3.1
- CC[C@H](C)[C@@H]1NC(=O)[C@H](CC(=O)O)NC(=O)[C@H](CC(C)C)NC(=O)C[C@H](CCCCN)NC(=O)[C@@H](Cc2ccc(CN)cc2)NC(=O)[C@@H]2CCCN2[C@H](C(=O)NC(C)(C)C)[C@H](C)NC1=O [Compound 253] — higher, 15.6
- CC(C)C[C@@H]1NC(=O)[C@H](CCc2ccccc2)NC(=O)[C@@H]2CCCN2[C@H](C(=O)NC(C)(C)C)[C@H](C)NC(=O)[C@H]([C@@H](C)O)NC(=O)[C@H](CC(=O)O)NC1=O [Compound 6] — lower, 1.9
- C[C@@H]1NC(=O)[C@H]([C@@H](C)O)NC(=O)[C@H](CC(=O)O)NC(=O)[C@H](CC(C)(C)C)NC(=O)c2ccc(-c3ccnc4ccccc34)c(c2)CNC(=O)[C@@H]2CCCN2[C@@H]1C(=O)NC(C)(C)C [Compound 355] — lower, 1.4
- CC(C)C[C@@H]1NC(=O)C[C@H](CCCCN)NC(=O)[C@H](Cc2ccc(O)cc2)NC(=O)[C@@H]2CCCN2[C@H](C(=O)NC(C)(C)C)[C@H](C)NC(=O)[C@H]([C@@H](C)OCc2ccccc2)NC(=O)[C@H](CC(=O)O)NC1=O [Compound 200] — lower, 2.6
- CC(C)C[C@@H]1NC(=O)[C@H]2CCCCN2C(=O)[C@H](Cc2cccc3ccccc23)NC(=O)[C@@H]2CCCN2[C@H](C(=O)NC(C)(C)C)[C@H](C)NC(=O)[C@H]([C@@H](C)O)NC(=O)[C@H](CC(=O)O)NC1=O [Compound 143] — lower, 2.1
- C[C@@H]1NC(=O)[C@H]([C@@H](C)O)NC(=O)[C@H](CC(=O)O)NC(=O)[C@H](CC(C)(C)C)NC(=O)[C@H]2CCCCN2C(=O)[C@H](Cc2ccc(O)cc2)NC(=O)[C@@H]2CCCN2[C@@H]1C(=O)NC(C)(C)C [Compound 150] — higher, 8.2
- COc1ccc(C[C@@H]2NC(=O)[C@@H]3CCCN3[C@H](C(=O)NC(C)(C)C)[C@H](C)NC(=O)[C@H]([C@@H](C)O)NC(=O)[C@H](CC(=O)O)NC(=O)[C@H](CC(C)C)NC(=O)[C@H]3CCCN3C2=O)cc1OC [Compound 127] — higher, 7.8
- COc1cccc(Cl)c1-c1ccc(C[C@@H]2NC(=O)[C@@H]3CCCN3[C@H](C(=O)NC(C)(C)C)[C@H](C)NC(=O)[C@H]([C@@H](C)O)NC(=O)[C@H](CC(=O)O)NC(=O)[C@H](CC(C)C)NC(=O)C[C@H](CCCCN)NC2=O)cc1 [Compound 269] — higher, 31.6
- CC(C)C[C@@H]1NC(=O)CN(C)C(=O)[C@H](Cc2cccc(I)c2)NC(=O)[C@@H]2CCCN2[C@H](C(=O)NC(C)(C)C)[C@H](C)NC(=O)[C@H]([C@@H](C)O)NC(=O)[C@H](CC(=O)O)NC1=O [Compound 106] — higher, 18.7
- CC(C)C[C@@H]1NC(=O)C[C@H](CCCCN)NC(=O)[C@H](CC2CCCCC2)NC(=O)[C@@H]2CCCN2[C@H](C(=O)NC(C)(C)C)[C@H](C)NC(=O)[C@H]([C@@H](C)O)NC(=O)[C@H](CC(=O)O)NC1=O [Compound 210] — higher, 16.0
- CC(C)C[C@@H]1NC(=O)[C@H](Cc2c[nH]cn2)NC(=O)[C@@H]2CCCN2[C@H](C(=O)NC(C)(C)C)[C@@H](CSc2ccccc2)NC(=O)[C@H](C(C)C)NC(=O)[C@H](CC(=O)O)NC1=O [Compound 2] — lower, 1.697
- CC[C@H](C)[C@@H]1NC(=O)[C@H](CC(=O)O)NC(=O)[C@H](CC(C)C)NC(=O)[C@@H](CCCCN)N(C)C(=O)[C@H](Cc2ccc(O)cc2)NC(=O)[C@@H]2CCCN2[C@H](C(=O)NC(C)(C)C)[C@H](C)NC1=O [Compound 154] — higher, 22.8
- CC(C)C[C@@H]1NC(=O)[C@H](Cc2cccc3ccccc23)NC(=O)[C@@H]2CCCN2[C@H](C(=O)NC(C)(C)C)[C@H](C)NC(=O)[C@H]([C@@H](C)O)NC(=O)[C@H](CC(=O)O)NC1=O [Compound 9] — lower, 1.7
